Results: patent US20240307349A1, “METHODS FOR THE PREPARATION AND DOSE REGIMENS FOR USE OF SSTR4 AGONISTS AND SALTS THEREOF” (priority 2023, published 2024)

Experiments:
Assay type in all cases: in vivo, human
[1] = Phase 1 study LXBB, single-dose pharmacokinetics in healthy subjects
Description: A total of 116 healthy subjects received at least one dose of Example 5 in phase 1 studies LXBB and LXBA.
The single-dose pharmacokinetics (PK) of Example 5 were evaluated at a dose range of from 20 to 400 mg.
(§1) Phase 1 Study LXBB was a first-in-human single-ascending dose/multiple-ascending dose (SAD/MAD) study in 89 healthy subjects (TABLE 1). […] One subject was discontinued due to the nondrug-related AE of pyrexia. In the SAD study, 1 subject each reported AEs of temporomandibular joint syndrome and tension headache. In the food effect study, 1 subject reported dry eye and nausea. In the Younger Group 10-day multiple-dose exposure study, the most commonly reported AEs were headache (2 subjects), diarrhea (2 subjects), nausea, rhinitis, and orthostatic hypotension (1 subject each). In the Elderly Group 10-day multiple-dose exposure study, the most commonly reported AEs were headache (5 subjects), pain in extremity (1 subject), vessel puncture site bruise (1 subject), dizziness (1 subject), and orthostatic hypotension (1 subject).

patients = experiment: Pooled safety analysis of Phase 2 studies OA03, BP03 and NP03; details: 200 mg to 600 mg
Description: For each of these studies, further analyses were performed to identify TEAEs related to CV, thyroid, and abnormal renal function. CV AEs were identified using prespecified standardized MedDRA queries/preferred terms (SMQs/PTs) for cardiac arrhythmia, hypotension, major adverse cardiovascular event, and congestive heart failure. Thyroid-related AEs were identified with the ‘Hypothyroidism’ (SMQ), and AEs associated with abnormal renal function were identified with the high-level terms (HLTs) renal failure and impairment and select PTs.
Safety data from the 3 pooled intervention-specific appendix (ISAs), OA03, BP03, and NP03 were analyzed for the following safety topics of interest.
Thus, after the treatment of a total 282 patients that were administered from 200 mg to 600 mg of Example 5 in the 3 phase 2 studies, an adequate safety profile was established. While the safety of the 3 phase 2 studies were discussed together, the efficacy results for each study will be discussed herein.

healthy subjects [2] = experiment: Phase 1 study LXBB (SAD/MAD), safety and tolerability in healthy subjects
Excerpt: (§2) The safety and tolerability of Example 5, were initially based on the 2 completed Phase 1 studies (LXBB and LXBA) and later confirmed with 3 completed Phase 2 studies (OA03, BP03, and NP03, as disclosed below).
as §1
The mean PR interval increase from baseline was 13 msec in subjects receiving single 400-mg dose (SAD); the highest PR interval change from baseline in an individual subject was 45 msec (after the 300-mg dose in MAD).

[3] = test system: participants with OA in the knee; experiment: H0P-MC-OA03 Phase 2 placebo-controlled trial, osteoarthritis pain
Excerpt: The purpose of this study was to test whether Example 5 is efficacious in relieving osteoarthritis (OA) pain in the knee. Data was also collected to assess the safety and tolerability of Example 5 in this study population and previously discussed. Pharmacokinetic properties and pharmacodynamic effects were also be explored. The totality of data from this proof-of-concept study assessed the benefits and risks associated with Example 5.
OA03 was an 8-week, Phase 2, randomized, double-blind, placebo-controlled study that compared Example 5 versus placebo in participants with OA in the knee.
The primary clinical question of interest was “What is the treatment difference between Example 5 and placebo assessed using mean change from baseline to endpoint (Week 8) for average pain intensity (API) as measured using the numeric rating scale (NRS) in participants with OA of the knee regardless of initiation of rescue medication or other allowed concomitant medication and assuming that they would have continued initially randomized treatment condition?”
The key secondary clinical question of interest was: “What is the treatment difference between Example 5 and placebo assessed using mean change from baseline to endpoint (Week 8) for pain as measured by the WOMAC® (Western Ontario and McMaster Universities Arthritis Index) pain subscale in participants with OA of the knee regardless of initiation of rescue medication or other allowed concomitant medication and assuming that they would have continued initially randomized treatment condition?”
Participants were randomly assigned in the ratio of 2:1 to Example 5 or placebo. Based on tolerability, participants could take up to a maximum of 3 capsules orally (each capsule was 200 mg), twice daily (BID), approximately every 12 hours, for a total dose of 600 mg.
The protocol was amended to include a titration to the target dose of 600 mg. Investigators could reduce the dose from 600 to 400 mg after discussion with the participant due to tolerability as long as the change occurred before the end of Visit 4, that is, study Week 2. The medical monitor was contacted as needed.

healthy subjects [4] = experiment: Phase 1 study LXBA, safety and tolerability in healthy subjects
Excerpt: as §2
Study LXBA is a completed study and consisted of 2 parts, Part A and Part B (TABLE 1). Part A of the study had 18 healthy subjects in 3 dosing cohorts, and Part B had 9 healthy subjects exposed to Example 5. […] In Part A, all treatment-emergent adverse events (TEAEs) were mild in severity except for 1 moderate event of presyncope. Constipation and insomnia (2 events each) were the only TEAEs reported in >1 subject. In Part B, the reported TEAEs were dysgeusia, nausea, and vomiting, which were all mild in severity.

Cc1cccnc1OCC(C)(C)NC(=O)[C@H]1[C@@H]2CNC[C@@H]21.O=C(O)C(O)C(O)C(=O)O [Example 5, (1R,5S,6r)-N-(2-Methyl-1-((3-methylpyridin-2-yl)oxy)propan-2-yl)-3-azabicyclo[3.1.0]hexane-6-carboxamide L-tartrate sesquihydrate]
Tmax ([1]; human, in vivo): 2 to 3 h | CL renal ([1]; human, in vivo, single dose, 20 to 400 mg, read-out: Renal clearance (converted)): ~167 mL/min | half-life ([1]; human, in vivo, single dose, 20 to 400 mg, read-out: mean terminal half-life (t1/2)): 11 to 13 h | dose dependence of plasma concentrations ([1]; single dose, 20 to 400 mg): generally increased in a dose-proportional manner | inter-subject variability coefficient of variation of plasma concentrations ([1]; single dose, 20 to 400 mg): < 25% | differences in thyroid-related TEAEs or thyroid analytes versus placebo (patients): no clinically meaningful differences | deaths or serious adverse events (SAEs) (healthy subjects [2]; SAD and MAD study): No deaths or serious adverse events (SAEs) were reported | severity of adverse events (AEs) (healthy subjects [2]; SAD and MAD study): mild or moderate in severity | tolerability (healthy subjects [2]; SAD and MAD study, 89 healthy subjects): well tolerated | highest PR interval change from baseline in an individual subject (healthy subjects [2]; after the 300-mg dose in MAD): 45 ms | changes in chemistry, hematology, or coagulation parameters (healthy subjects [2]; human, in vivo): no clinically significant changes | mean PR interval increase from baseline (healthy subjects [2]; single 400-mg dose (SAD)): 13 ms | Mean change from baseline assessment to endpoint for API as measured using the NRS ([3]; 8 weeks after initial treatment administration, up to 600 mg Q12H, n = 135): −1.7 | key secondary objective: efficacy versus placebo, WOMAC pain subscale ([3]; Week 8): did not meet the prespecified threshold | primary objective: efficacy versus placebo, API by weekly average of NRS ([3]; Week 8, osteoarthritic pain): did not meet the prespecified threshold | mean change in pain intensity from baseline assessment to Week 8 using the WOMAC pain subscale ([3]; Week 8, up to 600 mg Q12H, n = 135): −2.6 | tolerability (healthy subjects [4]; Part A 18 and Part B 9 healthy subjects): generally well tolerated | deaths, SAEs, or discontinuations due to AEs (healthy subjects [4]; human, in vivo): No deaths, SAEs, or discontinuations due to AEs have been reported | severity of AEs (healthy subjects [4]; human, in vivo): majority of AEs were of mild severity
